Data as given in patent US20200022998A1, “MEDICAL USE OF NOTCH4 OR INHIBITORS THEREOF” (BEIJING INSTITUTE OF GENOMICS, CHINESE ACADEMY OF SCIENCES, priority 2016, published 2020).
“Also recorded” adds a separate entry of the source.

Legend:
normal iPSC BC1 = test: in vitro megakaryocyte lineage differentiation of iPSC BC1 (spin-EB), flow cytometry at Day 14; format: cell-based, human; details: for decrease of proportion of HSPCs (CD34+CD45+) vs DMSO control / proportion of MKPs (CD34+CD41+) produced, increased fold vs DMSO control (set as 1) / proportion of mature megakaryocytes MKs (CD41+CD42+) produced, increased fold vs DMSO control (set as 1): FIG. 7A; for production of megakaryocyte progenitor cells and/or mature megakaryocytes in vitro: screen in the in vitro differentiation system of stem cells
Protocol: BC1 cell line was cultured in E8 medium, under the culture condition of 37° C., 5% CO2, and was passaged at (1:5)-(1:10) every 3-4 days depending on the concentration of cells. The cells were incubated in 0.5 mM EDTA, at room temperature for 2 min, and then were re-suspended and split up and down with E8 medium, and transferred to a culture dish that had been coated with Vitronectin one hour before.
During differentiation, spin-embryoid body (spin-EB) method was used (Ng E S, Davis R, Stanley E G, Elefanty A G, A protocol describing the use of a recombinant protein-based, animal product-free medium (APEL) for human embryonic stem cell differentiation as spin embryoid bodies, Nat Protoc. 2008; 3(5): 768-76.). At Day 0 (D0) after differentiation, iPSCs reached a confluence of above 85% (confluence refers to the percentage of the surface of a culture dish that is covered by adherent cells). After digestion with Accutase at 37° C. for 3 min, the cells were neutralized and split in SFM medium (50% IMDM, 50% Ham's F12, and the added reagents and factors including: human albumin, monothioglycerol, Glutamax, Chemically Defined Lipid Concentrate, L-Ascorbic acid 2-phosphate sesquimagnesium salt hydrate, ITS-X), counted, and centrifuged. After the cells were re-suspended in SFM, cytokines, i.e. 10 μM ROCK inhibitor (Rho-associated protein kinase inhibitor), 10 ng/ml bFGF, and 10 ng/ml BMP4, were added. Cells were seeded to a round-bottom 96-well plate, at 3000 or 5000 cells/50 μl for each well (3000 or 5000 cells were seeded to each well, in a volume of 50 μl for each well). At Day 2, 50 μl SFM medium+10 ng/ml bFGF+10 ng/ml BMP4+100 ng/ml SCF+20 ng/ml VEGF was added to each well. At Day 5, Day 8, and Day 11, 50 μl SFM medium+10 ng/ml bFGF+10 ng/ml BMP4+50 ng/ml SCF+10 ng/ml VEGF was added to each well, wherein 100 μl old medium was pipetted off at Day 8, and 10 ng/ml thrombopoietin (TPO) was added to each well at Day 11.
At Day 14 (D14), single cells (suspending cells) surrounding embryoid bodies (EBs) were collected. The cells were used in the following flow cytometry.
The cell surface markers (CD34, CD45, CD41, CD42) of the collected cells were detected by flow cytometer. The assay was as followed.
The detection was carried out in four tubes: the first tube was a negative tube that was not labeled with any flow antibody; the second tube was labelled with two antibodies CD34-APC and CD45-PE; the third tube was labeled with CD34-APC and CD41-PE; and the fourth tube was labeled with CD41-PE and CD42-APC, wherein CD34^+CD45^+represented the population of hematopoietic stem/progenitor cells (HSPCs), CD34^+CD41^+ represented the population of megakaryocyte progenitor cells (MKPs), and CD41^+CD42^+ represented the population of mature megakaryocytes (MKs).
(1) The BC1 cell line used was the same as the one used in Example 1, and was divided into three groups, wherein two 96-well plates were used for each group, and the cells were seeded at 5000 cells/50 μl to each well. In vitro differentiation was carried out by reference to the steps in Example 1, wherein the step of adding a drug was carried out in accordance with the following steps in I-III groups:
I. At Day 0 after differentiation, 10 μM RO4929097 was added, and DMSO was added to the control well.
III. At Day 2 after differentiation, 10 μM RO4929097, 10 μM L-685458, and 10 μM DAPT were added, respectively; in addition, at Day 5 after differentiation, 10 μM RO4929097, 10 μM L-685458, and 10 μM DAPT were added, respectively.
(2) The cells were collected for flow cytometry analysis, and as to the steps, please refer to the Example 1 above. […]
I. At Day 0 after differentiation, 10 μM RO4929097, and 10 μM DAPT were added, respectively.
II. At Day 2 after differentiation, 10 μM RO4929097, and 10 μM DAPT were added, respectively.
III. At Day 5 after differentiation, 10 μM RO4929097, and 10 μM DAPT were added, respectively.
IV. […]

[1] = system: umbilical cord blood-derived CD34+ cells; test: megakaryocyte colony forming unit (MK-CFU) experiment, umbilical cord blood-derived CD34+ cells; format: cell-based, human; details: 10 μM; FIG. 16
Protocol: Megakaryocyte colony forming unit (MK-CFU) experiment: at Day 14, the cells resulted from induced differentiation were collected, and 7,500 single cells were seeded to collagen-based MegaCult-C Kit. After incubation for 10-12 days, the cells were stained with anti-CD41 antibody and counted. CD41^+ megakaryocyte colonies were counted.

[2] = 10 μM at Day 5 after in vitro differentiation, found by comparison

C[C@H](NC(=O)Cc1cc(F)cc(F)c1)C(=O)N[C@H](C(=O)OC(C)(C)C)c1ccccc1 [DAPT]
decrease of proportion of HSPCs (CD34+CD45+) vs DMSO control (normal iPSC BC1; 10 μM added at Day 2): 35%
proportion of MKPs (CD34+CD41+) produced, increased fold vs DMSO control (set as 1) (normal iPSC BC1; 10 μM added at Day 2): about 1.5 folds
proportion of mature megakaryocytes MKs (CD41+CD42+) produced, increased fold vs DMSO control (set as 1) (normal iPSC BC1; 10 μM added at Day 2): about 2.4 folds
number of MKPs (CD34+CD41+) produced, increase vs DMSO control (normal iPSC BC1; 10 μM added at Day 2, FIG. 9): 2.5 folds
number of mature megakaryocytes MKs (CD41+CD42+) produced, increase vs DMSO control (normal iPSC BC1; 10 μM added at Day 2, FIG. 9): 4.3 folds
proportion of HSPCs produced, increased fold vs DMSO control (set as 1) (normal iPSC BC1; 10 μM added at Day 5, FIG. 7B): about 1.5 folds
proportion of MKPs produced, increased fold vs DMSO control (set as 1) (normal iPSC BC1; 10 μM added at Day 5, FIG. 7B): about 1.5 folds
proportion of mature megakaryocytes MKs produced, increased fold vs DMSO control (set as 1) (normal iPSC BC1; 10 μM added at Day 5, FIG. 7B): about 4.1 folds
total number of hematopoietic cells, increase vs control group (normal iPSC BC1; 10 μM added at Day 5, FIG. 7B): 2.8 folds
number of HSPCs (CD34+CD45+), increase vs DMSO control (normal iPSC BC1; 10 μM added at Day 5, FIG. 10): 2.8 folds
number of MKPs (CD34+CD41+) produced, increase vs DMSO control (normal iPSC BC1; 10 μM added at Day 5, FIG. 10): about 6.5 folds
number of mature megakaryocytes MKs (CD41+CD42+) produced, increase vs DMSO control (normal iPSC BC1; 10 μM added at Day 5, FIG. 10): about 6.7 folds
number of MKPs (CD34+CD41+) produced, increase vs DMSO control (normal iPSC BC1; 10 μM added at Day 8, FIG. 12): 1.5 folds
number of mature megakaryocytes MKs (CD41+CD42+) produced, increase vs DMSO control (normal iPSC BC1; 10 μM added at Day 8, FIG. 12): 1.5 folds
number of mature megakaryocytes MKs (CD41+CD42+) produced, increase vs DMSO control (normal iPSC BC1; 10 μM added at Day 11, FIG. 13): 1.3 folds
promotion of the production of mature megakaryocytes (normal iPSC BC1; [2]): ~12 folds
promotion of the production of megakaryocyte progenitor cells (normal iPSC BC1; [2]): 4 folds
production of megakaryocyte progenitor cells and/or mature megakaryocytes in vitro (normal iPSC BC1): significantly promote
ability of megakaryocyte progenitor cells to form mature MK colony (CFU-MK), increase vs control group [1]: 2.8 folds

CC(C)(C(=O)NCC(F)(F)C(F)(F)F)C(=O)N[C@@H]1C(=O)Nc2ccccc2-c2ccccc21 [RO4929097]
proportion of HSPCs (CD34+CD45+) (normal iPSC BC1; 10 μM added at Day 0, FIG. 5): ~0%
proportion of MKPs (CD34+CD41+) (normal iPSC BC1; 10 μM added at Day 0, FIG. 5): ~0%
proportion of MKs (CD41+CD42+) (normal iPSC BC1; 10 μM added at Day 0, FIG. 5): ~0%
formation of hematopoietic embryoid body (EB) (normal iPSC BC1; 10 μM added at Day 0 after differentiation): no hematopoietic embryoid body EB was formed; also recorded: no hematopoietic embryoid body (EB) could be formed
increase of proportion of mature megakaryocytes MKs (CD41+CD42+) produced vs DMSO control (normal iPSC BC1; 10 μM added at Day 2, FIG. 6): 64%
increase of proportion of megakaryocyte progenitor cells MKPs (CD34+CD41+) produced vs DMSO control (normal iPSC BC1; 10 μM added at Day 2, FIG. 6): 67%
decrease of proportion of HSPCs (CD34+CD45+) vs DMSO control (normal iPSC BC1; 10 μM added at Day 2): 40%
proportion of MKPs (CD34+CD41+) produced, increased fold vs DMSO control (set as 1) (normal iPSC BC1; 10 μM added at Day 2): about 1.4 folds
proportion of mature megakaryocytes MKs (CD41+CD42+) produced, increased fold vs DMSO control (set as 1) (normal iPSC BC1; 10 μM added at Day 2): about 2.5 folds
number of MKPs (CD34+CD41+) produced, increase vs DMSO control (normal iPSC BC1; 10 μM added at Day 2, FIG. 9): 2.5 folds
number of mature megakaryocytes MKs (CD41+CD42+) produced, increase vs DMSO control (normal iPSC BC1; 10 μM added at Day 2, FIG. 9): 4.3 folds
decrease of proportion of HSPCs vs DMSO control (normal iPSC BC1; 10 μM added at Day 5, FIG. 7B): 11%
proportion of mature megakaryocytes MKs produced, increased fold vs DMSO control (set as 1) (normal iPSC BC1; 10 μM added at Day 5, FIG. 7B): about 2.6 folds
total number of hematopoietic cells, increase vs control group (normal iPSC BC1; 10 μM added at Day 5, FIG. 7B): did not change
number of HSPCs (CD34+CD45+), increase vs DMSO control (normal iPSC BC1; 10 μM added at Day 5, FIG. 10): 2.8 folds
number of MKPs (CD34+CD41+) produced, increase vs DMSO control (normal iPSC BC1; 10 μM added at Day 5, FIG. 10): about 6.5 folds
number of mature megakaryocytes MKs (CD41+CD42+) produced, increase vs DMSO control (normal iPSC BC1; 10 μM added at Day 5, FIG. 10): about 6.7 folds
number of MKPs (CD34+CD41+) produced, increase vs DMSO control (normal iPSC BC1; 10 μM added at Day 8, FIG. 12): 1.5 folds
number of mature megakaryocytes MKs (CD41+CD42+) produced, increase vs DMSO control (normal iPSC BC1; 10 μM added at Day 8, FIG. 12): 1.5 folds
number of mature megakaryocytes MKs (CD41+CD42+) produced, increase vs DMSO control (normal iPSC BC1; 10 μM added at Day 11, FIG. 13): 1.3 folds
effect on promoting the production of MKPs and MKs (normal iPSC BC1; 15 μM added at Day 2, FIG. 6, not as significant as 10 μM): a certain effect on promoting the production of MKPs and MKs
production of megakaryocyte progenitor cells and/or mature megakaryocytes in vitro (normal iPSC BC1): significantly promote
ability of megakaryocyte progenitor cells to form mature MK colony (CFU-MK), increase vs control group [1]: 2.8 folds
